{
  "source": "paper PMC2074379",
  "about": "(British Journal of Cancer, 1996)",
  "key": {"[1]": {"assay": "Stability of antagonist D and antagonist G in 1% (w/v) mouse liver homogenate", "assay_type": "in vitro ADME", "conditions": "for amount of antagonist remaining after 1 h of incubation: 50 nmol in 1.0 ml 1% w/v mouse liver homogenate in PBS pH 7.4, 37°C, HPLC with fluorescence detection, corrected for extraction efficiency (94.4% D, 94% G), three experiments; for amount of metabolite accumulated after 1 h: from 50 nmol parent antagonist in 1% mouse liver homogenate, PBS pH 7.4, 37°C, HPLC fluorescence, extraction efficiency 94.4% (D metabolites), 94% (G metabolites) assumed, mean of three experiments", "excerpt": "British Journal of Cancer (1996) 73, 715-720 ? 1996 Stockton Press All rights reserved 0007-0920/96 $12.00 % Metabolism of the broad-spectrum neuropeptide growth factor antagonist: ID-Arg1, D-Phe5, D-Trp7'9, Leull\"-substance P DA Jones', J Cummings', SP Langdon', AJ Maclellan', T Higgins2, E Rozengurt2 and JF Smyth' 'Imperial Cancer Research Fund, Medical Oncology Unit, Western General Hospital, Edinburgh EH4 2XU; 2Imperial Cancer Research Fund, PO Box 123, Lincoln's Inn Fields, London WC2A 3PX, UK. Summary Broad-spectrum neuropeptide growth factor antagonists, such as [D-Arg', D-Phe5, D-Trp7'9, Leu']substance P (antagonist D) and [Arg6, D-Trp7'9, NmePhe8]substance p(6- 11) (antagonist G), are currently being investigated as possible anti-tumour agents. […] Keywords: broad spectrum; neuropeptide; antagonist; metabolism Successful, long-term treatment of small-cell lung cancer (SCLC) remains a major therapeutic problem. […] The disease is characterised by its ability to secrete and to be growth stimulated by a variety of neuropeptide growth factors that include bombesin/gastrin- releasing peptide (GRP), vasopressin, bradykinin, cholecys- tokinin and neurotensin (Woll and Rozengut, 1989). […] These agents include [D- Arg'-D-Phe5-D-Trp7'9-Leu' 1]-substance P and [Arg6-D-Trp7'9- NmePhe8]-substance P(6-11) (code named antagonists D and G respectively) (Sethi et al., 1992). […] In the near future antagonist G will be the first of this new class of compound, broad- spectrum neuropeptide growth factor antagonists, to enter a phase I clinical trial for the potential treatment of SCLC. […] The research reported here describes the characterisation of the in vitro metabolism of antagonist D, comparing its metabolic stability to that of antagonist G, which we have previously reported (Jones et al., 1995). […] Materials and methods Antagonist D was purchased from Peninsula Laboratories (St Helens, UK), Antagonist G was supplied by Peptech (Europe) (Copenhagen, Denmark). H-D-Arg-Pro-Lys-Pro-D- Phe-Gln-D-Trp-Phe-D-Trp-Leu-Leu-OH (metabolite 1) and H-D-Arg-Pro-Lys-Pro-D-Phe-Gln-D-Trp-Phe-D-Trp-Leu-OH (metabolite 2) were prepared in-house using conventional Fmoc solid-phase peptide synthesis procediures. Reagents for peptide synthesis were purchased from NovaBiochem (UK) (Nottingham, UK). Acetic acid and ammonium acetate were from BDH Chemicals (Poole, UK). Methanol and acetoni- trile were high-performance liquid chromatography (HPLC) grade from Rathburn Chemicals (Walkerburn, UK). Tri- fluoroacetic acid was from Sigma Chemical (Poole, UK). All other chemicals Were of the highest grade commercially available and used without further purification. Water was deionised and bidistilled in a quartz glass still. HPLC The HPLC system used consisted of two 510 HPLC pumps, a 712 WISP autosampler, a TCM column heater (all Waters, Northwich, UK) and a model 1046A fluorescence detector (Hewlett Packard, Walborn, Germany). A Waters MAXIMA 820 computer package was used with a Waters system interface module to control the system operation and collect and integrate data. Separation was achieved on a Prime- sphere 5 gm (250 x 4.6 mm) column (Phenomenex, Maccles- field, UK) using isocratic elution with 45% (v/v) acetonitrile in 0.1% (v/v) aqueous triflouroacetic acid (TFA) at 450C. Detection of the peptides was by fluorescence (Excitation 233 nm Emission 395 nm)."}, "[2]": {"conditions": "ref Cummings et al., 1994; cited from earlier work", "excerpt": "(§1) British Journal of Cancer (1996) 73, 715-720 ? 1996 Stockton Press All rights reserved 0007-0920/96 $12.00 % Metabolism of the broad-spectrum neuropeptide growth factor antagonist: ID-Arg1, D-Phe5, D-Trp7'9, Leull\"-substance P DA Jones', J Cummings', SP Langdon', AJ Maclellan', T Higgins2, E Rozengurt2 and JF Smyth' 'Imperial Cancer Research Fund, Medical Oncology Unit, Western General Hospital, Edinburgh EH4 2XU; 2Imperial Cancer Research Fund, PO Box 123, Lincoln's Inn Fields, London WC2A 3PX, UK. Summary Broad-spectrum neuropeptide growth factor antagonists, such as [D-Arg', D-Phe5, D-Trp7' ..."}, "[3]": {"tested_on": "Swiss 3T3 cells stimulated by vasopressin", "assay": "[3H]thymidine uptake by Swiss 3T3 cells after mitogenic stimulation by vasopressin", "assay_type": "cell-based, murine", "conditions": "vasopressin 1 nM, 40 h, mean of duplicate samples"}, "[4]": {"tested_on": "SCLC xenografts (HC12 and ICR-SC112)", "conditions": "ref Everard et al., 1993; cited from earlier work", "excerpt": "as §1"}, "[5]": {"tested_on": "SCLC and non-SCLC cell lines", "conditions": "SCLC and non-SCLC cell lines in vitro; ref Reeve and Bleehan, 1994; cited from earlier work", "excerpt": "as §1"}, "[6]": {"tested_on": "SCLC xenografts (WX322 and H69)", "conditions": "WX322 and H69 xenografts in nude mice; ref Langdon et al., 1992; cited from earlier work", "excerpt": "as §1"}, "[7]": {"tested_on": "non-SCLC, ovarian and cervical cancer cell lines", "conditions": "ref Everard et al., 1992; cited from earlier work", "excerpt": "as §1"}, "SCLC cells": {"tested_on": "SCLC cells", "conditions": "ref Woll and Rozengurt, 1988; cited from earlier work", "excerpt": "as §1"}, "[8]": {"tested_on": "Swiss 3T3 cells stimulated by bradykinin", "assay": "[3H]thymidine uptake by Swiss 3T3 cells after mitogenic stimulation by bradykinin", "assay_type": "cell-based, murine", "conditions": "bradykinin 1 nM, insulin 1 µg/ml, 40 h, mean of duplicate samples"}, "[9]": {"tested_on": "Swiss 3T3 cells stimulated by bombesin", "assay": "[3H]thymidine uptake by Swiss 3T3 cells after mitogenic stimulation by bombesin", "assay_type": "cell-based, murine", "conditions": "bombesin 1 nM, insulin 1 µg/ml, 40 h, mean of duplicate samples"}, "[10]": {"assay": "1% (w/v) mouse liver homogenate in PBS (pH 7.4)", "conditions": "37?C, up to 1 h"}, "[11]": {"assay": "2% w/v mouse liver homogenate in PBS (pH 7.4)", "conditions": "37?C, up to 2 h"}, "human plasma": {"assay": "human plasma", "conditions": "cited from earlier work"}},
  "note": "Entries after “also recorded” stand apart in the source; their conditions may differ. Residues, ends and D or L forms follow the SMILES beside them.",
  "data": [
    {"compound": "CC(C)C[C@H](NC(=O)[C@H](CC(C)C)NC(=O)[C@@H](Cc1c[nH]c2ccccc12)NC(=O)[C@H](Cc1ccccc1)NC(=O)[C@@H](Cc1c[nH]c2ccccc12)NC(=O)[C@H](CCC(N)=O)NC(=O)[C@@H](Cc1ccccc1)NC(=O)[C@@H]1CCCN1C(=O)[C@H](CCCCN)NC(=O)[C@@H]1CCCN1C(=O)[C@H](N)CCCN=C(N)N)C(N)=O", "note": "[antagonist D, [D-Arg1, D-Phe5, D-Trp7,9, Leu11]substance P] (HELM PEPTIDE1{[dR].P.K.P.[dF].Q.[dW].F.[dW].L.L.[am]}$$$$V2.0)", "values": [
      {"measurement": "amount of antagonist remaining after 1 h of incubation", "setting": "[1]", "value": 30.8, "unit": "nmol"},
      {"measurement": "stability relative to antagonist G", "setting": "[1]; 1% mouse liver homogenate, 37°C (Figure 2)", "value": "almost twice as stable as antagonist G"},
      {"measurement": "rate of disappearance relative to antagonist G", "setting": "[1]; over the first 30 min, 1% mouse liver homogenate, 37°C", "value": "half the rate of antagonist G"},
      {"measurement": "stability in human plasma", "setting": "[2]", "value": "stable"}
    ]},
    {"compound": "CC(C)C[C@H](NC(=O)[C@H](CC(C)C)NC(=O)[C@@H](Cc1c[nH]c2ccccc12)NC(=O)[C@H](Cc1ccccc1)NC(=O)[C@@H](Cc1c[nH]c2ccccc12)NC(=O)[C@H](CCC(N)=O)NC(=O)[C@@H](Cc1ccccc1)NC(=O)[C@@H]1CCCN1C(=O)[C@H](CCCCN)NC(=O)[C@@H]1CCCN1C(=O)[C@H](N)CCCNC(=N)N)C(N)=O", "note": "[antagonist D, [D-Arg1, D-Phe5, D-Trp7,9, Leu11]substance P] (HELM PEPTIDE1{[dR].P.K.P.[dF].Q.[dW].F.[dW].L.L.[am]}$$$$V2.0)", "values": [
      {"measurement": "IC50", "setting": "[3]; [3H]thymidine uptake, read-out: IC50 value, vasopressin stimulated growth", "value": "< 1000", "unit": "nM"},
      {"measurement": "activity against other SCLC xenografts in vivo", "setting": "[4]", "value": "activity"},
      {"measurement": "induction of apoptosis", "setting": "[5]", "value": "induce apoptosis"},
      {"measurement": "growth of SCLC xenografts", "setting": "[6]", "value": "inhibit the growth"},
      {"measurement": "in vitro activity against cancer cell lines", "setting": "[7]", "value": "activity"},
      {"measurement": "potency against SCLC cells in vitro relative to antagonist G", "setting": "SCLC cells", "value": "equipotent to antagonist G"}
    ]},
    {"compound": "CSCC[C@H](NC(=O)[C@H](CC(C)C)NC(=O)[C@@H](Cc1c[nH]c2ccccc12)NC(=O)[C@H](Cc1ccccc1)N(C)C(=O)[C@@H](Cc1c[nH]c2ccccc12)NC(=O)[C@@H](N)CCCNC(=N)N)C(N)=O", "note": "[antagonist G, [Arg6, D-Trp7,9, NmePhe8]substance P(6-11)] (HELM PEPTIDE1{R.[dW].[meF].[dW].L.M.[am]}$$$$V2.0)", "values": [
      {"measurement": "amount of antagonist remaining after 1 h of incubation", "setting": "[1]", "value": 21.1, "unit": "nmol"},
      {"measurement": "growth of SCLC xenografts", "setting": "[6]", "value": "inhibit the growth"}
    ]},
    {"compound": "CC(C)C[C@H](NC(=O)[C@H](CC(C)C)NC(=O)[C@@H](Cc1c[nH]c2ccccc12)NC(=O)[C@H](Cc1ccccc1)NC(=O)[C@@H](Cc1c[nH]c2ccccc12)NC(=O)[C@H](CCC(N)=O)NC(=O)[C@@H](Cc1ccccc1)NC(=O)[C@@H]1CCCN1C(=O)[C@H](CCCCN)NC(=O)[C@@H]1CCCN1C(=O)[C@H](N)CCCNC(=N)N)C(=O)O", "note": "[metabolite 1, H-D-Arg-Pro-Lys-Pro-D-Phe-Gln-D-Trp-Phe-D-Trp-Leu-Leu-OH] (HELM PEPTIDE1{[dR].P.K.P.[dF].Q.[dW].F.[dW].L.L}$$$$V2.0)", "values": [
      {"measurement": "antagonist activity with respect to bradykinin (inhibition of [3H]thymidine uptake)", "setting": "[8]", "value": "retained none of the antagonist properties"},
      {"measurement": "amount of metabolite accumulated after 1 h", "setting": "[1]", "value": 9.6, "unit": "nmol"},
      {"measurement": "vasopressin antagonist activity (inhibition of [3H]thymidine uptake)", "setting": "[3]; insulin 1 µg/ml", "value": "inactive"},
      {"measurement": "antagonist activity with respect to bombesin (inhibition of [3H]thymidine uptake)", "setting": "[9]", "value": "retained none of the antagonist properties"}
    ]},
    {"compound": "CC(C)C[C@H](NC(=O)[C@@H](Cc1c[nH]c2ccccc12)NC(=O)[C@H](Cc1ccccc1)NC(=O)[C@@H](Cc1c[nH]c2ccccc12)NC(=O)[C@H](CCC(N)=O)NC(=O)[C@@H](Cc1ccccc1)NC(=O)[C@@H]1CCCN1C(=O)[C@H](CCCCN)NC(=O)[C@@H]1CCCN1C(=O)[C@H](N)CCCNC(=N)N)C(=O)O", "note": "[metabolite 2, H-D-Arg-Pro-Lys-Pro-D-Phe-Gln-D-Trp-Phe-D-Trp-Leu-OH] (HELM PEPTIDE1{[dR].P.K.P.[dF].Q.[dW].F.[dW].L}$$$$V2.0)", "values": [
      {"measurement": "antagonist activity with respect to bradykinin (inhibition of [3H]thymidine uptake)", "setting": "[8]", "value": "retained none of the antagonist properties"},
      {"measurement": "amount of metabolite accumulated after 1 h", "setting": "[1]", "value": 12.3, "unit": "nmol"},
      {"measurement": "antagonist activity with respect to bombesin (inhibition of [3H]thymidine uptake)", "setting": "[9]", "value": "retained none of the antagonist properties"}
    ]},
    {"compound": "H-Arg-D-Trp-N\"'Phe-D-Trp-Leu-Met-NH,", "values": [
      {"measurement": "cleaved bond", "setting": "[10]", "value": "Met-NH2, major"}
    ]},
    {"compound": "H-D-Arg-Pro-Lys-Pro-D-Phe-GIn-D-Trp-Phe-D-Trp-Leu-Leu-NH2", "values": [
      {"measurement": "cleaved bond", "setting": "[11]", "value": "Leu11-NH2, major; also recorded: Leu10-Leu11, major"},
      {"measurement": "cleaved bond", "setting": "[10]", "value": "Leu11-NH2, major; also recorded: Leu10-Leu11, major"},
      {"measurement": "not cleaved", "setting": "human plasma", "value": "stable in human plasma"}
    ]}
  ]
}
